Common to all, as to assay type: in vivo
The subject of experiment [1] is Corn (cultivar: PIONEER 31N27). In words: Test Example 8: corn seedling spraying, low-temperature stress, fresh weight of above-ground part. The settings on record: for Average fresh weight of above-ground part: low-temperature stress 2±2° C. 5 days, non-treated 0.79 g. As to the method:
Corn seeds (cultivar: PIONEER 31N27) were sown in the culture soil (AISAI) in plastic pots (55 mm in diameter×58 mm in height) and grown for a week under the following conditions to obtain corn seedlings: temperature, 20 to 25° C.; humidity, 50 to 75%; illuminance, about 5,000 lux; day length, 16 hours.
A flowable formulation of the compound (1b) was obtained by adding 120 mg of a mixture of white carbon and a polyoxyethylene alkyl ether sulfate ammonium salt (weight ratio of 1:1) and 300 μl of water to 0.5 mg of compound (1b), followed by fine grinding by a wet grinding method. This flowable formulation was diluted with 50 ml of water, to which RINO (manufactured by NIHON NOHYAKU) was added as a sticker to 5,000-fold dilution, whereby a spray solution was obtained. A sufficient amount of the spray solution was applied to the corn seedlings by using an automatic spraying machine. As a control, a flowable formulation without compound (1b) was prepared and then sprayed to the non-treated group.
Subsequently, the corn seedlings treated with the spray solution were placed in a phytotron under the following conditions in order to expose the plants to low-temperature stress for 5 days. • Conditions: “temperature, 2±2° C.; lighting hour, 16 hours; • illuminance, about 5,000 lux; humidity, 35 to 80%”
The plants were then grown for another 4 days under the following conditions: temperature, 25 to 28° C.; humidity, 50 to 75%, illuminance, about 5,000 lux; day length, 16 hours. Then the fresh weight of the above-ground part of the plants was measured. The experiment was performed in four replications for each treatment condition and the average weight per individual was calculated.

Experiment [2] deals with corn plants (cultivar: Koshu). In words: Test Example 9: corn seed soaking, low-temperature stress, fresh weight of above-ground part. The settings on record: for Average fresh weight of above-ground part: low-temperature stress 3±2° C. 7 days, non-treated 1.18 g. As to the method:
Each of the 1,000-fold concentrated dimethylsulfoxide (DMSO) solutions of compound (1b) was 1,000-fold diluted with water to prepare a soultion of compound (1b) at the test concentration. The solution was dispensed in 30 ml aliquots into […] Petri dishes, in which seeds of corn plants (cultivar: Koshu) were soaked and incubated for 16 hours at 24° C. in the dark. The corn seeds were sown in the culture soil (AISAI) in the plastic pots (55 mm in diameter×58 mm in height), and corn seedlings were grown for 4 days under the following conditions: temperature, 27° C.; illuminance, about 5,000 lux; day length, 16 hours. As a control, a 0.1% aqueous DMSO solution was prepared, and seeds were soaked in this solution and then sown and grown into seedlings in the same way as described above. This group was used as the non-treated group. The corn seedlings were placed in a phytotron under the following conditions in order to expose the plants to low-temperature stress for 7 days. • Conditions: “temperature, 3±2° C.; day length, 16 hours; • illuminance, about 5,000 lux; humidity, 35 to 80%” The plants were then grown for another 7 days under the following conditions: temperature, 27° C.; humidity, 50 to 75%, illuminance, about 5,000 lux; day length, 16 hours. Then the fresh weight of the above-ground part of the plants was measured. The experiment was performed in four replications for each individual plant for each treatment condition and the average weight per individual was calculated.

Experiment [3] deals with corn seeds (cultivar: Kuromochi). In words: Test Example 6: corn seed coating, low-temperature stress, fresh weight of above-ground part. To be noted: for Average fresh weight of above-ground part: low-temperature stress 3±2° C. 7 days, non-treated 1.18 g. On the procedure:
A blank slurry solution containing 5% (V/V) color coat red (Becker Underwood, Inc.), 5% (V/V) CF-Clear (Becker Underwood, Inc.) and 0.4% Maxim XL (Syngenta) was prepared. […] In a 50-ml centrifuge tube (manufactured by BD Japan), 0.48 ml of the slurry solution was placed for each 20 g of corn seeds (cultivar: Kuromochi) and stirred until the solution was dried, thereby coating the seeds. As a control, seeds were coated with the blank slurry solution and used for a non-treated group. Two treated corn seeds were sown in the culture soil (AISAI) in each plastic pot (55 mm in diameter×58 mm in height) and grown for 4 days under the following conditions: temperature, 27° C.; illuminance, 5,000 lux; day length, 16 hours. These were subjected to the test. The pots at day 4 after the sowing were placed in a phytotron under the following conditions in order to expose the plants to low-temperature stress for 7 days. Conditions: “temperature, 3±2° C.; day length, 16 hours; illuminance, about 5,000 lux; humidity, 35 to 80%” The plants were grown for another 7 days under the following conditions: temperature, 27° C.; humidity, 50 to 75%, illuminance, about 5,000 lux; day length, 16 hours. Then the fresh weight of the above-ground part of the plants was measured. The experiment was performed in four replications for each treatment condition and the average weight per individual was calculated.

Each structure is given as a SMILES string.

As for `CNC(=O)C(OC)c1ccccc1COc1cc(C)ccc1C` (racemic) [Compound (1b), N-methyl-2-[2-(2,5-dimethylphenoxy)methyl]phenyl-2-methoxyacetamide], the “fresh weight of the above-ground part as compared with the non-treated group” value is “increased” in experiment [1] (plants exposed to low-temperature stress, concentration range of 10 ppm to 100 ppm) and “increased” in experiment [2] (plants exposed to low-temperature stress, concentration range of 3 ppm to 30 ppm). For the same compound, the “Average fresh weight of above-ground part” value is listed as 0.89 g in experiment [1] (spray 10 ppm); 0.94 g in experiment [1] (spray 30 ppm); 0.90 g in experiment [1] (spray 100 ppm); 1.49 g in experiment [2] (seed soaking 3 ppm); 2.25 g in experiment [2] (seed soaking 10 ppm); 1.35 g in experiment [2] (seed soaking 30 ppm). For the same compound, the “Average fresh weight of above-ground part” value was 1.33 g in experiment [3] (seed coating 10 g), 1.30 g in experiment [3] (seed coating 25 g), 1.29 g in experiment [3] (seed coating 50 g) and 1.34 g in experiment [3] (seed coating). Also, the “fresh weight of the above-ground part as compared with the control group” value in experiment [3] (plants exposed to low-temperature stress, 10 g to 50 g per 100 kg of seeds) is reported as “an increase”.
